Patent US8697747B2, “Enhancing coagulation or reducing fibrinolysis” (THe UAB Research Foundation, priority 2009, dated 2014)

Key:
[1] = test system: plasma from donors treated with warfarin; test: Thrombelastography/CLSM in plasma of warfarin-treated donors with or without tPA; type: biochemical, human; conditions: warfarin-treated subjects, tPA 100 IU/mL; 100 μM CORM-2
Protocol: Pooled normal plasma (George King Bio-Medical, Overland Park, Kans.) anticoagulated with sodium citrate was utilized for experimentation. […] Plasma anticoagulated with sodium citrate procured from anonymous donors treated with warfarin was also obtained from the same vendor.
Plasma sample composition of experiments without tPA addition. The final volume for all subsequently described plasma sample mixtures was 359.6 μL. Sample composition consisted of 326 μL of plasma, 10 μL of tissue factor reagent (0.1% final concentration in dH2O; Instrumentation Laboratory, Lexington, Mass.), 3.6 μL of dimethyl sulfoxide (DMSO) or DMSO with CORM-2 (100 μM final concentration; Sigma-Aldrich, St. Louis, Mo.), and 20 μL of 200 mM CaCl2. Tissue factor stock was kept on ice prior to use and was remade every two hours. […] DMSO was added to dry CORM-2 just prior to placement into the plasma mixture. Six replicate experiments were performed with pooled normal plasma with or without CORM-2 added, whereas plasma obtained from subjects treated with warfarin underwent singlicate experiments with or without CORM-2 exposure.
Plasma sample composition of experiments with tPA addition. […]
Clot Lifespan Model Analyses. […] Time to maximum rate of lysis (TMRL): This is the time interval (sec) measured from the time of maximum strength to the time when the velocity of clot disintegration is maximal. […]

[2] = test system: α2-antiplasmin deficient plasma; test: CLSM thrombelastography with tPA, α2-antiplasmin deficient plasma; type: biochemical, human
Protocol: Pooled normal plasma (George King Bio-Medical, Overland Park, Kans.) anticoagulated with sodium citrate was utilized for experimentation. […] Factor XIII (FXIII) deficient plasma anticoagulated with sodium citrate was also obtained from the same vendor.
Plasma Sample Composition. The final volume for all subsequently described plasma sample mixtures was 359.4 μL. Sample composition consisted of 316 μL of plasma; 10 μL of tissue factor (0.1% final concentration in 0.9% NaCl; Diagnostica Stago, Asnieres, France), 3.6 μL of dimethyl sulfoxide (DMSO) or DMSO with CORM-2 (Sigma-Aldrich, St. Louis, Mo.) or DMSO with inactivated CORM-2 (iCORM-2), 10 μL of tissue-type plasminogen activator (tPA, 580 U/μg, Genentech, Inc., San Francisco, Calif.) diluted with 10 mM potassium phosphate buffer (pH 7.4) for a final activity of 100 IU/mL, and 20 μL of 200 mM CaCl2. […] This concentration of CORM-2 was chosen because the concentration of CO released would be expected to be in the mid to lower ranges used in previously reported ex vivo, in vitro, and cell-based experiments (Motterlini et al. 2002; Megias et al. 2007; Chlopicki et al. 2006; Dong et al. 2008). […] (Motterlini et al. 2005). While CORM-2 decays slowly in DMSO, DMSO was added to the dry compound just prior to placement into the plasma mixture. The specific series of experiments are subsequently presented.
Assessment of the Effects of CORM-2 on CLSM Parameters in FXIII, PAI-1, TAFI and α2-antiplasmin Deficient Plasmas. These experiments were performed to elucidate the roles played by antifibrinolytic enzymes during CORM-2 mediated modulation of fibrinolysis. Samples of the various deficient plasmas were exposed to 0 or 100 μM of CORM-2 (n=8 per condition). Samples underwent CLSM analyses as subsequently described.
Clot Lifespan Model Analyses. As described in Example 1, plasma sample mixtures were placed in a disposable cup in a computer-controlled THROMBELASTOGRAPH® hemostasis system (Model 5000, Haemoscope Corp., Niles, Ill.), with addition of CaCl2 as the last step to initiate clotting. Data were collected until clot lysis time occurred. […] As this model involves complete fibrinolysis, TTG is equivalent to ACL, so ACL was not presented as it provides no additional information.
Statistical Analyses. Data are presented as median (1st, 3rd quartiles). […] Nonlinear and linear analyses and curve fitting of the various CORM-2 concentrations effects on CLSM variables were performed with commercially available software (SigmaPlot 11.0, Systat Software, Inc., San Jose, Calif.). Analyses of the effects of CORM-2 and iCORM-2 on CLSM variables in normal plasma were conducted with Kruskal-Wallis one way analysis of variance on ranks, whereas Mann-Whitney rank sum tests were used to assess the effects of CORM-2 on CLSM variables in the various immunodepleted/congenitally deficient plasma types (SigmaStat 3.1, Systat Software, Inc., San Jose, Calif.). Graphical representation of the data was generated with commercially available software (SigmaPlot 11.0, Systat Software, Inc., San Jose, Calif.; CorelDRAW 12.0, Corel Corporation, Ottawa, Ontario, Canada; Origin 7.5, OriginLab Corp., Northampton, Mass.). A P value of <0.05 was considered significant.

[3] = 100 μM CORM-2, tPA 100 IU/mL, median, n=8

`[C-]#[O+].[C-]#[O+].[C-]#[O+].[C-]#[O+].[C-]#[O+].[C-]#[O+].[Cl][Ru][Cl].[Cl][Ru][Cl]` [CORM-2, tricarbonyldichlororuthenium (II) dimer] was tested, and the “effect on clot lifespan” value [1] was “The clot lifespan was increased in all subjects”, the “increase in MRL, % of baseline values” [1] was 11-181% and the “CGT (clot growth time)” value [2, 3] was 188 s. For the same compound, the “CLS (clot lifespan)” value [2, 3] was 378 s, the “CLT (clot lysis time)” value [2, 3] was 190 s and the “MRL (maximum rate of lysis)” value [2, 3] was −10.0 -dynes/cm^2/sec. For the same compound, the “MRTG (maximum rate of thrombus generation)” value [2, 3] was 10.1 dynes/cm^2/sec, the “TMRL (time to maximum rate of lysis)” value [2, 3] was 68 s and the “TMRTG (time to maximum rate of thrombus generation)” value [2, 3] was 160 s. For the same compound, the “TTG (total thrombus generation)” value [2, 3] was 231 dynes/cm^2, the “increase of CLS” value ([2]; 100 μM CORM-2 vs unexposed) was 14% and the “increase of the velocity of clot formation” value ([2]; 100 μM CORM-2 vs unexposed) was 35%. For the same compound, the “prolongation of CLT” value ([2]; 100 μM CORM-2 vs unexposed) was 23%.
